{"source": "ChEMBL document CHEMBL1201862", "about": "“PubChem BioAssay data set” (2004)", "key": {"[1]": {"test": "M. tuberculosis growth inhibition, HTS (AID 449762)", "assay_type": "functional"}, "[2]": {"test": "NIH-3T3 fibroblast cytotoxicity, dose response, cytotoxicity control, cell-based, fluorescence, Alamar Blue, secondary assay (AID 2327);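 also: NIH-3T3 mouse fibroblasts cultured with fluconazole at 8 µg/mL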", "assay_type": "functional"}, "[3]": {"test": "inhibitors of SNCA 5'UTR-driven reporter translation, confirmation, H4 neuroglioma cells, luminescence (AID 1988)", "assay_type": "functional, cell-based"}, "[4]": {"test": "C. albicans growth with fluconazole, confirmation, fluorescence, retest (AID 2467)", "assay_type": "functional, cell-based"}, "[5]": {"test": "Luminescence Cell-Based Dose Response HTS to Identify Inhibitors of 5'UTR Stem-Loop Driven Prion Protein mRNA Translation in H4 Neuroglioblastoma Cells. [Related pubchem assays: 1827 (Project Summary), 1813 (Primary HTS)]", "assay_type": "functional"}, "[6]": {"test": "inhibitors of firefly luciferase expression or activity, dose response, H4 neuroglioma cells, luminescence (AID 1990)", "assay_type": "functional, cell-based"}, "[7]": {"test": "cytotoxicity toward NIH3T3 fibroblasts, dose response, counter-screen, cell-based, ATP luminescence, mouse fibroblasts (AID 2010);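 also: cells exposed to compound for about 90 hours before reading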", "assay_type": "functional"}, "[8]": {"test": "inhibitors of intracellular T. cruzi replication, confirmation, NIH3T3 host cells, beta-gal luminescence (AID 2044);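 also: luminescent beta-galactosidase reporter signal from transgenic T. cruzi replicating inside host cells; inhibitors lower the luminescence signal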", "assay_type": "functional, cell-based"}, "[9]": {"test": "inhibitors of Vif binding to APOBEC3G peptide, primary screen, biochemical, TR-FRET, GST-Vif 1-94, biotin-A3G peptide, dose response retest (AID 1117319);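 also: TR-FRET signal of purified GST-Vif binding a biotinylated A3G peptide; inhibitors lower the FRET signal by blocking Vif and A3G binding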", "assay_type": "functional"}, "[10]": {"molecular_target": "T1, Mannose-6-phosphate isomerase (Homo sapiens, UniProt P34949)", "T1 sequence (P34949 whole entry)": "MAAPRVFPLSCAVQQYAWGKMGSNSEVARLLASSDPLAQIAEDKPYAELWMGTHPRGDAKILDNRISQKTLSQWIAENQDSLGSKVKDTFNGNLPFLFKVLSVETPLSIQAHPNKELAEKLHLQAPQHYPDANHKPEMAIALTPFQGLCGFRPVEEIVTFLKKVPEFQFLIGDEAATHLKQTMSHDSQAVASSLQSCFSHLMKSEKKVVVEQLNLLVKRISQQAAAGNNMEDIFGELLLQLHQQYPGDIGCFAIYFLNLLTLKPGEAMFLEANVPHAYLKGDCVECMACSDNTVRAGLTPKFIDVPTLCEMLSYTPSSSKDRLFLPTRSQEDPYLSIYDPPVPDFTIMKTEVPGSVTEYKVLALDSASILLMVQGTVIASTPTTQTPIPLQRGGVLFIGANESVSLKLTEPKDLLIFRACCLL", "test": "inhibitors of human PMI, primary screen, biochemical, fluorescence intensity, coupled assay (AID 1209)"}, "[11]": {"test": "cytotoxicity in KRAS-transformed pancreatic duct cells, primary screen, cell-based, fluorescence, HTS (AID 431);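 also: cell line used: HPDE-C7K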", "assay_type": "functional", "settings": "Homo sapiens"}, "[12]": {"molecular_target": "T2, Type-1 angiotensin II receptor (Homo sapiens, UniProt P30556)", "T2 sequence (P30556 whole entry)": "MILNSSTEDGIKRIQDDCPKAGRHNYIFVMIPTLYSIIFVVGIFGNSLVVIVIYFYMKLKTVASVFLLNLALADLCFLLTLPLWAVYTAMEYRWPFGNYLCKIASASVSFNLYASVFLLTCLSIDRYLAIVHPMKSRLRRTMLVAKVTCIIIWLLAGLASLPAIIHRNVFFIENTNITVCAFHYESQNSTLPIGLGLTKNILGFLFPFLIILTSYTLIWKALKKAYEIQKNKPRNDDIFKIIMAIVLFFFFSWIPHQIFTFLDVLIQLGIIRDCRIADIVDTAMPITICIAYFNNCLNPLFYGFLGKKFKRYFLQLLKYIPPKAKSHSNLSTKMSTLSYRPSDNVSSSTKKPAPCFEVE", "test": "AT1 receptor antagonists, dose response, selectivity assay for APJ receptor antagonist project, cell-based, uHTS hits (AID 463214);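 also: antagonist potency against angiotensin II stimulated AT1 response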", "assay_type": "functional"}, "[13]": {"test": "cytotoxicity in HPDE-C7 cells, cell-based, fluorescence, HTS (AID 430)", "assay_type": "functional", "settings": "Homo sapiens"}, "Beta-galactosidase": {"molecular_target": "Beta-galactosidase (Escherichia coli, UniProt Q8VNN2)", "sequence (Q8VNN2 whole entry)": "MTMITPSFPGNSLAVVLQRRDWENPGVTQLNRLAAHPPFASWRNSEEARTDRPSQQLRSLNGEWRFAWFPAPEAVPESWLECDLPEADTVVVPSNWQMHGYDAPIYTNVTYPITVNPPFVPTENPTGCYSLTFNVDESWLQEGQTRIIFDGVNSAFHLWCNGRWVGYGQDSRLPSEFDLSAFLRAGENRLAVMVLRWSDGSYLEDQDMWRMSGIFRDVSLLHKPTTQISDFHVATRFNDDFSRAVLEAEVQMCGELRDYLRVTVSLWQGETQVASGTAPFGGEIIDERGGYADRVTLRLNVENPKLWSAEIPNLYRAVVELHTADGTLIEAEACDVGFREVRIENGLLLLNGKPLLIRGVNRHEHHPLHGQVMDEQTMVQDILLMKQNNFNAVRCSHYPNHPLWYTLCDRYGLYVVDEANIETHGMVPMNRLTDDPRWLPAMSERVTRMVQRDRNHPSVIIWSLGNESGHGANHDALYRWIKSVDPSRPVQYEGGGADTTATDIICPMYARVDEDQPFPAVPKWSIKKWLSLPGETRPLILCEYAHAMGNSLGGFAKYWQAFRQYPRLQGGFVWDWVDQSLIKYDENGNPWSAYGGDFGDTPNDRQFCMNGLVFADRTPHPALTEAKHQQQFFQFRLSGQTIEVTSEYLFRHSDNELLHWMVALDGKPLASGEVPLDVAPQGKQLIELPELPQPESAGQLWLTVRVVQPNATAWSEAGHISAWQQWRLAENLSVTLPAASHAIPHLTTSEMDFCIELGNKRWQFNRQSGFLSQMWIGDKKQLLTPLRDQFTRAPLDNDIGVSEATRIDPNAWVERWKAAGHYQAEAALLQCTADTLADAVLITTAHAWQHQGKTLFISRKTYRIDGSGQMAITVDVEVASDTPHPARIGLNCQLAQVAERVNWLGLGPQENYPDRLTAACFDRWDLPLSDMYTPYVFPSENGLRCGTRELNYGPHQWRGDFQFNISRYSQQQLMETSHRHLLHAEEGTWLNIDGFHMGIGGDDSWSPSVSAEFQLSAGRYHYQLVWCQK", "test": "PubChem AID 485352", "assay_type": "functional"}, "[14]": {"test": "cytotoxicity in HEK-293T cells, dose response, cytotoxicity control for TCR NF-kB inhibitor project, luminescence, T-cell screen hits (AID 489026);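 also: cells exposed to compound about 14 hours before the viability readout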", "assay_type": "functional, cell-based"}, "[15]": {"molecular_target": "T3, Rac GTPase-activating protein 1 (Homo sapiens, UniProt Q9H0H5)", "T3 sequence (Q9H0H5 whole entry)": "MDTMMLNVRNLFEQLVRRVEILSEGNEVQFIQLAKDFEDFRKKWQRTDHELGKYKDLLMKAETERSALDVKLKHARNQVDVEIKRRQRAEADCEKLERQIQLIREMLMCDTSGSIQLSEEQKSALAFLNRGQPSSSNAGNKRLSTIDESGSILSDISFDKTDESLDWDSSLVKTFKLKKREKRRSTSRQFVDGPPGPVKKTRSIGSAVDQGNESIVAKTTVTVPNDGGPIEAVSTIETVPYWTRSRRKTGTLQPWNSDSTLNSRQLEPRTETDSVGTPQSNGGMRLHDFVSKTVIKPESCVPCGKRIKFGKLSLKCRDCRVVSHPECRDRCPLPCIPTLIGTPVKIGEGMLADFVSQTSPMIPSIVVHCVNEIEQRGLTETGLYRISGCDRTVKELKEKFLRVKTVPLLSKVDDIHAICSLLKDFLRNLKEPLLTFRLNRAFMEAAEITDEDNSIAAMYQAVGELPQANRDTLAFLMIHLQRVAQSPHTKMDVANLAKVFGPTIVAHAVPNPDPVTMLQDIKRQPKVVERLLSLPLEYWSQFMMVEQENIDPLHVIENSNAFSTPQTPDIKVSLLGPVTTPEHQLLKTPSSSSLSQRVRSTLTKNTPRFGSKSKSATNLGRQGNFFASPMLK", "test": "MgcRacGAP GTPase-activating activity inhibitors, confirmation, biochemical, ADP Hunter fluorescence, primary and confirmatory (AID 624330)", "assay_type": "functional"}, "[16]": {"test": "Luminescent dose response cell-based high throughput screening assay for inhibitors of the Janus kinase 2 mutant JAK2V617F. [Related pubchem assays: 1446 (Primary screen.), 1521 (Confirmation assay.), 1486 (Counter screen.)]", "assay_type": "functional"}, "Cytochrome P450 3A4": {"molecular_target": "Cytochrome P450 3A4 (Homo sapiens, UniProt P08684)", "sequence (P08684 whole entry)": "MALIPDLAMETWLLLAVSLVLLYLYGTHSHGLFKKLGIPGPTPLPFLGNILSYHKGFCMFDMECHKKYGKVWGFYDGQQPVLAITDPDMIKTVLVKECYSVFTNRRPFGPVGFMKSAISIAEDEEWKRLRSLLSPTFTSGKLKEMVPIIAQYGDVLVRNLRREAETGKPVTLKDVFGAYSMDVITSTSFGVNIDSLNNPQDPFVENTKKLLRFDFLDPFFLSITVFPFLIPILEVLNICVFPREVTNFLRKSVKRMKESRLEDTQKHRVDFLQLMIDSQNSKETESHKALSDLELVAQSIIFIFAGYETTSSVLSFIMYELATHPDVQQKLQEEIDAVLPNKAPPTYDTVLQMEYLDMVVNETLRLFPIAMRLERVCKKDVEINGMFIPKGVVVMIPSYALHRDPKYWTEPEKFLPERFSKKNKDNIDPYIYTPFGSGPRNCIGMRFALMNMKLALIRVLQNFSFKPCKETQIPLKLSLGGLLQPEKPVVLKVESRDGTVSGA"}, "Cytochrome P450 2C9": {"molecular_target": "Cytochrome P450 2C9 (Homo sapiens, UniProt P11712)", "sequence (P11712 whole entry)": "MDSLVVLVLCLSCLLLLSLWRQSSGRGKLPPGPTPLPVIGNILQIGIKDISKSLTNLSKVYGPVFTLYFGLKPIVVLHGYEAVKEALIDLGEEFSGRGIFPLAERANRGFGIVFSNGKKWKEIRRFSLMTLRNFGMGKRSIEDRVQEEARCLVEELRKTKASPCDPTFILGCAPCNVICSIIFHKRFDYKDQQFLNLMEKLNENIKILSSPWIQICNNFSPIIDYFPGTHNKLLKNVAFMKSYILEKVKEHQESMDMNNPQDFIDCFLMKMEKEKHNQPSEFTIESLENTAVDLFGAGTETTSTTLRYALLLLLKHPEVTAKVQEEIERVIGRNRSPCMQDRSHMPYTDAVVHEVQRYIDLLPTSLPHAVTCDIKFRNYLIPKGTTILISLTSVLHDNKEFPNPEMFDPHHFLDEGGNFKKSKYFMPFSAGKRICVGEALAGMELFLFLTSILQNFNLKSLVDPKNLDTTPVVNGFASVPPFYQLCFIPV"}, "Cytochrome P450 2C19": {"molecular_target": "Cytochrome P450 2C19 (Homo sapiens, UniProt P33261)", "sequence (P33261 whole entry)": "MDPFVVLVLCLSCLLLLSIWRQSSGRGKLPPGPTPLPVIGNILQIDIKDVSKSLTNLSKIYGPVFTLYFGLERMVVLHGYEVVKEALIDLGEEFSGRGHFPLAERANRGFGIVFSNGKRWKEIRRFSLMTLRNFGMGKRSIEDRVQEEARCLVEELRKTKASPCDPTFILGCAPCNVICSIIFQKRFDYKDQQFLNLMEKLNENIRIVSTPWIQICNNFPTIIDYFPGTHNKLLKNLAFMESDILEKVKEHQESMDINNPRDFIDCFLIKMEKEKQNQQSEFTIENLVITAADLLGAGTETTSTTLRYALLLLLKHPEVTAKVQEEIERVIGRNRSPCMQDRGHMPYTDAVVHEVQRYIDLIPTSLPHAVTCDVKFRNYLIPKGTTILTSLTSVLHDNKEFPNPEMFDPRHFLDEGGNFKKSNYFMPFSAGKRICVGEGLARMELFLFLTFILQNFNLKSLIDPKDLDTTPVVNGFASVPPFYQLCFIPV", "test": "Cytochrome panel assay with activity outcomes. Panel member name: p450-cyp2c19 Compounds with AC50 equal or less than 10 uM are considered active", "assay_type": "functional", "settings": "read-out: AC50"}, "Ephrin type-A receptor 4": {"molecular_target": "Ephrin type-A receptor 4 (Mus musculus, UniProt Q03137)", "sequence (Q03137 whole entry)": "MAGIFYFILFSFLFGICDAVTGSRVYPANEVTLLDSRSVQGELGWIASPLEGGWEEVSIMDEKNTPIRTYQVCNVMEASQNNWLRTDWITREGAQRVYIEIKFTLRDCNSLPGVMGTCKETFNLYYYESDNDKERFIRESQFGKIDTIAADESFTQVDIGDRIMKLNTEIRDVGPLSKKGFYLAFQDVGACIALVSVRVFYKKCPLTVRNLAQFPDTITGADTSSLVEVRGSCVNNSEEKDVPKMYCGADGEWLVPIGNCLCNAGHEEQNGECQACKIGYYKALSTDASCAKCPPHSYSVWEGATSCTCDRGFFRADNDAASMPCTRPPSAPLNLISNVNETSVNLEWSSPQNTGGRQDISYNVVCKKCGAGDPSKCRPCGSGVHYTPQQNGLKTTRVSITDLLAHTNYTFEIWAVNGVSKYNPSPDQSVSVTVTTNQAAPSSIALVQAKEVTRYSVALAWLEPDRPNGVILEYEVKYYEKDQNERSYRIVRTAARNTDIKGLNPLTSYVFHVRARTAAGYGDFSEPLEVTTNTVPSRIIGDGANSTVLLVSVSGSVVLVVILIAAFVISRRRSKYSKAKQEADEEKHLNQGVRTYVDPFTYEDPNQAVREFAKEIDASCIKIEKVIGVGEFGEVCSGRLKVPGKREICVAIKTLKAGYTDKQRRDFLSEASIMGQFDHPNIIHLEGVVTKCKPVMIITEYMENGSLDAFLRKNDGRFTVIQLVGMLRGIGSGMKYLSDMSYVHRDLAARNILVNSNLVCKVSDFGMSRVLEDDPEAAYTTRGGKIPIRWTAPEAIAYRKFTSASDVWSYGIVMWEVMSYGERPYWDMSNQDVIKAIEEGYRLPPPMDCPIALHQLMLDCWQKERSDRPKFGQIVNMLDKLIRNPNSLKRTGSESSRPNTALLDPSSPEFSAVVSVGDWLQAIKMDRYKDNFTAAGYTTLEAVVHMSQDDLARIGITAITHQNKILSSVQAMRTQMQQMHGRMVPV", "test": "inhibitors of EphA4 binding to KYL peptide, primary screen, biochemical, colorimetric, mouse EphA4 (AID 689)", "assay_type": "functional"}, "[17]": {"molecular_target": "T4, Ubiquitin-conjugating enzyme E2 N (Homo sapiens, UniProt P61088)", "T4 sequence (P61088 whole entry)": "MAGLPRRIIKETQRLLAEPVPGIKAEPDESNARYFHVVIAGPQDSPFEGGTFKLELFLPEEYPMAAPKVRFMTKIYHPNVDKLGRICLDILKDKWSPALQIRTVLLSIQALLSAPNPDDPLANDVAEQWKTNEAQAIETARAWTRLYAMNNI", "assay_type": "functional"}}, "note": "Where a name gives a salt, the structure may show the parent alone. Calls of active or inactive are those of the source.", "data": [{"smiles": "Cn1ccnc1C(O)c1cc(C(C)(C)C)c(O)c(C(C)(C)C)c1", "note": "(stereo not drawn)", "values": [{"measurement": "IC50", "setting": "[1]", "value": "> 100 µM (active)"}]}, {"smiles": "CCOc1ccc(-c2cc(C)[n+](CCN(CC)CC)c(-c3ccc(OCC)cc3)c2)cc1.[O-][Cl+3]([O-])([O-])[O-]", "values": [{"measurement": "EC50", "setting": "[2]", "value": "98.5 µM (active)"}, {"measurement": "EC50", "setting": "[3]", "value": "8.8 µM (active)"}, {"measurement": "EC50", "setting": "[4]", "value": "258 nM (active)"}, {"measurement": "EC50", "setting": "cells", "value": "89 nM (active)"}, {"measurement": "EC50", "setting": "[5]", "value": "14.6 µM (active)"}, {"measurement": "EC50", "setting": "[6]", "value": "10.2 µM (active)"}, {"measurement": "EC50", "setting": "[7]", "value": "> 60 µM (not active)"}, {"measurement": "EC50", "setting": "[8]", "value": "< 100 nM (active)"}]}, {"smiles": "CC(=O)c1ccc(S(=O)(=O)Nc2cccc(-c3ccc(N4CCOCC4)nn3)c2)cc1", "values": [{"measurement": "IC50", "setting": "[9]", "value": "> 100 µM (active)"}]}, {"smiles": "CCOC(=O)c1ccc(N2C(=O)CC(SCC(=O)Nc3ccc(S(N)(=O)=O)cc3)C2=O)cc1", "note": "(stereo not drawn)", "values": [{"measurement": "IC50", "setting": "[10]", "value": "28.1 µM (active)"}]}, {"smiles": "COc1ccc(N2CN=C3SCC(=O)N3C2)cc1", "values": [{"measurement": "IC50", "setting": "[1]", "value": "> 100 µM (active)"}]}, {"smiles": "CCOC(=O)/C=C/S(=O)(=O)c1ccc(NC(C)=O)cc1", "values": [{"measurement": "EC50", "setting": "[11]", "value": "10.4 µM (active)"}, {"measurement": "IC50", "setting": "[12]", "value": "9.22 µM (active)"}, {"measurement": "EC50", "setting": "[13]", "value": "8.93 µM (active)"}, {"measurement": "EC50", "setting": "Beta-galactosidase", "value": "> 40 µM (inactive)"}, {"measurement": "IC50", "setting": "[14]", "value": "> 80 µM (inactive)"}]}, {"smiles": "Oc1ccc(Cl)cc1/N=C/c1sc2ccccc2c1Cl", "values": [{"measurement": "IC50", "setting": "[15]", "value": "20.4 µM (active)"}, {"measurement": "IC50", "setting": "[16]", "value": "1.15 µM (active)"}]}, {"smiles": "CCOC(=O)C1=C(c2ccccc2)N=c2s/c(=C\\c3cc(OC)c(OC)c(OC)c3)c(=O)n2C1c1cccs1", "note": "(stereo not drawn)", "values": [{"measurement": "AC50", "setting": "Cytochrome P450 3A4", "value": "7.08 µM (inconclusive)"}, {"measurement": "AC50", "setting": "Cytochrome P450 2C9", "value": "1.26 µM (inconclusive)"}, {"measurement": "AC50", "setting": "Cytochrome P450 2C19", "value": "631 nM (inconclusive)"}, {"measurement": "IC50", "setting": "Ephrin type-A receptor 4", "value": "1.49 µM (active)"}, {"measurement": "EC50", "setting": "[7]", "value": "> 60 µM (not active)"}, {"measurement": "EC50", "setting": "[8]", "value": "1290 nM (active)"}]}, {"smiles": "CNCCC(Oc1ccc(C(F)(F)F)cc1)c1ccccc1", "note": "(stereo not drawn) [FLUOXETINE HYDROCHLORIDE]", "values": [{"measurement": "IC50", "setting": "[17]", "value": "> 20 µM (inactive)"}, {"measurement": "EC50", "setting": "[11]", "value": "> 20 µM (not active)"}, {"measurement": "EC50", "setting": "[13]", "value": "> 20 µM (not active)"}]}]}
